From patent publication US5422341A, “Motilin-like polypeptides with gastrointestinal motor stimulating activity” (Ohmeda Pharmaceutical Products Division Inc., priority 1993, dated 1995)
Square brackets hold non-standard residues; d marks the D form. Peptide text beside a SMILES is read from it. NMeF = CN[C@@H](Cc1ccccc1)C(=O)O

Columns and labels:
[1] = in vivo; cited from earlier work
motilin receptor = molecular target: T1, motilin receptor (Oryctolagus cuniculus, UniProt G1T803); assay: Determination of motilin receptor binding affinity (displacement of [125I-Tyr7, Nle13]motilin(porcine)); parameters: species or system rabbit
T1 construct: from tissue; host or cells: rabbit antral smooth muscle membranes
Method: The motilin receptor binding affinity of the peptides of this invention was determined by using the general procedure of Bormans, Peelers and Vantrappen, Regul. […] Fitting was performed using the iterative least-squares procedure of the SAS-software package (SAS Institute, Inc., Cary, N.C., USA).

[2] = system: canine gastrointestinal tract; assay: Contractile activity in the canine gastrointestinal tract; format: in vivo, dog; conditions: anesthetized dogs, intra-arterial injection to a duodenal segment; amount giving 50% of the calibration response to field stimulation
[3] = molecular target: segments of rabbit duodenum (Oryctolagus cuniculus, UniProt G1T803); assay: Rabbit duodenal smooth muscle strip tissue bath assay; format: cell-based; conditions: negative logarithm of the dose giving 50% of the maximal response to motilin; isotonic contraction of rabbit duodenum segments
Summary of the method: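 Isotonic contraction of rabbit duodenal segments after 1 h equilibration and 10^-4 M acetylcholine challenge; cumulative compound curve over 10^-11 to 10^-4 M, then 10^-7 M motilin. Runs discarded if final acetylcholine response differed >5%. EC50 at 50% of maximal motilin response, reported as pEC50.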

[4] = format: in vitro ADME, hog; conditions: pH 7
Method: Like most small linear polypeptides, motilin is believed to be metabolized lo by the brush border cells of the kidney. Therefore, kidney homogenate was chosen as the model system for assessing the relative in vivo biostability of the peptides of this invention. All peptides to be studied were incubated in hog kidney (Pel Freeze, Inc., Rogers, Ark.) (2% w/v; final volume=4 ml; buffer=HEPES pH 7.0) at 25° C. Both initial substrate concentration and internal standard (Fmoc-Gly) concentration were 0.5 mg/ml. In order to determine suitable incubation times and sampling intervals, two experiments were conducted with each polypeptide. The first run served as a rough estimate of peptide stability. All sampling was performed in duplicate. Sample volume was 180 μl.
Sample clean-up was performed by addition of 20 μl of 100% TCA (final volume=200 μl; final TCA concentration=10%). The sample was vortexed for from 5 to 10 seconds to ensure equilibration, then centrifuged to spin out the precipitated proteins. Analysis was carried out on a Waters HPLC system with a WISP autoinjector, a 5μ Vydac C-18 analytical column, and a Waters 481 UV detector set at 214 nm. Injection volume was 80 μl. Initial solvent conditions were […] in Milli-Q water with a 35 minute gradient running to 63% acetonitrile/37% (0.1%) TFA at 1 ml/min.
Polypeptide substrate and metabolite peaks were ratioed to the internal standard and the duplicate sample ratios were averaged. The avenge ratio for the peptide substrate was expressed as a percentage and plotted versus time. First-order kinetics was assumed for data treatment. The rate of disappearance of the substrate was calculated using the Enzfitter program (Biosoft). Relative half-lives were determined from the relationship: […]

T1 sequence (G1T803 1-400): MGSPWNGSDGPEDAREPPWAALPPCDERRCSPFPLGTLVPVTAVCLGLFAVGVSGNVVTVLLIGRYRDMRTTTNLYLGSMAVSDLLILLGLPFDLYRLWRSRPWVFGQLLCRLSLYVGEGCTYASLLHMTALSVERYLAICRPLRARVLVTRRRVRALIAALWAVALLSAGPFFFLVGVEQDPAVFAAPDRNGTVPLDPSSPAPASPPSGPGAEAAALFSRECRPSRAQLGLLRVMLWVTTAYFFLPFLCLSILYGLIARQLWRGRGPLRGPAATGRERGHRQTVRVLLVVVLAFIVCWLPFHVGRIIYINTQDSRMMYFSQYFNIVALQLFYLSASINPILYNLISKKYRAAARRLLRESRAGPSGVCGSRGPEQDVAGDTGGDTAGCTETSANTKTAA
segments of rabbit duodenum, sequence (G1T803 1-400): as above

pEC50 [3]	IC50 (motilin receptor; negative logarithm of the concentration displacing 50% of [125I-Tyr7, Nle13]motilin(porcine) from rabbit antral smooth muscle membranes, read-out: pIC50 (converted))	T1/2 [4]	SMILES	half-life (t1/2) [1]	Kd (motilin receptor)	ED50 [2]
			CC[C@H](C)[C@H](NC(=O)[C@@H]1CCCN1C(=O)[C@@H](NC(=O)[C@@H](N)Cc1ccccc1)C(C)C)C(=O)N[C@@H](Cc1ccccc1)C(=O)N[C@H](C(=O)N[C@@H](Cc1ccc(O)cc1)C(=O)NCC(=O)N[C@@H](CCC(=O)O)C(=O)N[C@@H](CC(C)C)C(=O)N[C@@H](CCC(N)=O)C(=O)N[C@@H](CCCNC(=N)N)C(=O)N[C@@H](CCSC)C(=O)N[C@@H](CCC(N)=O)C(=O)N[C@@H](CCC(=O)O)C(=O)N[C@@H](CCCCN)C(=O)N[C@@H](CCC(=O)O)C(=O)N[C@@H](CCCNC(=N)N)C(=O)N[C@@H](CC(N)=O)C(=O)N[C@@H](CCCCN)C(=O)NCC(=O)N[C@@H](CCC(N)=O)C(=O)O)[C@@H](C)O [motilin]	4.5 min	759 pM	
7.74	479 pM	20	CC[C@H](C)[C@H](NC(=O)[C@@H]1CCCN1C(=O)[C@@H](NC(=O)[C@H](Cc1ccccc1)NC)C(C)C)C(=O)N[C@@H](Cc1ccccc1)C(=O)N[C@H](C(=O)N[C@@H](Cc1ccc(O)cc1)C(=O)NCC(=O)N[C@@H](CCC(=O)O)C(=O)N[C@@H](CC(C)C)C(=O)N[C@@H](CCC(N)=O)C(=O)N[C@@H](CCCNC(=N)N)C(=O)N[C@@H](CC(C)C)C(=O)N[C@@H](CCCCN)C(N)=O)[C@@H](C)O (H-[NMeF]VPIFTYGELQRLK-NH2)			0.025 nmol
